Results taken from patent publication US12465579B2, “Compositions and methods for treating homocystinuria and other conditions” (THE REGENTS OF THE UNIVERSITY OF COLORADO, A BODY CORPORATE, priority 2019, dated 2025).

What was measured:
HO HCU mice [1] = test: Plasma Hcy, cysteine and metabolite levels in HO HCU mice treated via drinking water; type: in vivo, mouse; conditions: for further lowering of Hcy due to betaine in the presence of the amino acid: about 3.0% w/v amino acid combined with about 3.0% w/v betaine in drinking water, one week; for plasma Hcy / plasma cysteine levels: HO mice, about 3.0% (w/v) in drinking water ad libitum for one week, normal methionine diet
Procedure: It is noted that WT mice (n=6) were untreated controls. HO HCU mice (N=8, 4 of each sex in each group) were either untreated or treated with about 3.0% (w/v) glycine w/v or about 3.0% (w/v) serine given in drinking water supplied ad libitum for one week.
In accordance with these methods, HO HCU mice (N=8, 4 of each sex in each group) were treated with either about 3.0% glycine w/v or about 3.0% w/v serine given in drinking water supplied ad libitum for one week in the presence and absence of about 3.0% w/v betaine. Plasma samples were taken from the mice at various times and Hcy levels were determined.
Plasma Hcy levels were determined from HO HCU mice (n=8 per group) in the presence and absence of either about 5.0% w/v sodium formate alone or in combination with about 3.0% betaine given in drinking water given ad libitum. […]

[2] = tested on: mouse model of MTR deficient homocystinuria; test: Betaine supplementation in mouse model of MTR deficient homocystinuria; type: in vivo
From the text: In the following exemplary experiments, it was observed that betaine supplementation was limited as observed in a mouse model of MTR deficient homocystinuria. As noted in FIG. 1, Homocystinuria can occur due to defects in the Hcy remethylation enzymes MTR or MTHFR. It was observed that supplementation of betaine in certain experiments with a mouse model of MTR deficient homocystinuria lead to reduction of tHcy of approximately 25% having little effect on the condition. This modest decrease in betaine mediated treatment of MTR deficient homocystinuria has also been observed in human patients with this form of homocystinuria.

HO HCU mice [3] = test: Long-term betaine treatment of HO HCU mice without methionine-restriction; type: in vivo, mouse
hepatic 5-methyl-THF = test: Hepatic metabolomic analysis of 5-MeTHF in HO mice; type: in vivo, mouse; conditions: betaine 3% w/v in drinking water ad libitum
From the text: As illustrated in one example, see FIG. 2, HCU (HO) induces a significant accumulation of hepatic 5-methyl-THF which by sequestering one carbon units has the potential to decrease the available pool of THF available to the betaine pathway for lowering Hcy. FIG. 2 illustrates an example of hepatic metabolomic analysis of HO and WT controls compared to an HO mouse treated with betaine. Comparative hepatic metabolomic analysis of HO mice and WT controls illustrate about a 10-fold accumulation in the MTHFR product 5-MeTHF. Betaine treatment alone reduced 5-MeTHF by about 15-25%. Data illustrated in FIG. 2 is derived from the livers of 8 (4 male, 4 female) individual HO or WT or HO Betaine mice per group. Betaine was given at 3% w/v in drinking water given ad libitum. P<0.0001 vs WT.

Cbs null mouse [4] = conditions: betaine treatment; cited from earlier work
BHMT = BHMT protein level in liver during long-term betaine treatment; type: in vivo
From the text: By this observation, it raised the possibility that the BHMT protein is impaired in its function. […] In this context, further induction of BHMT expression observed in a long-term betaine treatment group could constitute a not entirely successful compensatory mechanism designed to mitigate the effects of diminished BHMT activity.
In other embodiments disclosed herein, it was observed that BHMT is unusual in that it constitutes approximately 2% of total protein in the liver. During long-term betaine treatment this concentration rises to up to four to five fold (about 8-10%) of total hepatic protein which is an enormous amount of protein that would require zinc for its function. The increased requirement for zinc cannot be supplied because zinc cannot be stored in mammals and must be supplemented by diet or other source. Unfortunately, dietary sources of zinc are typically very high in protein and therefore precluded by the low methionine diet required of HCU patients. Therefore, long term betaine treatment in HCU could induce a significant zinc deficiency in a subject, impairing BHMT protein function and concomitantly reducing the betaine response.
BHMT is unusual in that it constitutes approximately 2% of total protein in the liver. […]

DHFR = test: Western blotting analysis of hepatic DHFR protein levels in HO HCU mice; type: in vivo, mouse; conditions: betaine treated, not restored to control levels
Procedure: In other exemplary experiments, levels of DHFR were assessed using the HO mouse model in untreated and betaine treated mice. […] In addition, intensity levels of DHFR were measured and further illustrated in a histogram plot. As illustrated, level of intensity of DHFR for wild type (WT), treated (HO+betaine) and untreated mice (HO) using the HCU mouse model was examined. It is noted that the level of DHFR in betaine treated mice was not restored to control levels and only about a 5-10% improvement was observed (4B). (See FIGS. 4A-4B). As noted herein, Western blotting analysis of hepatic DHFR protein levels in WT and HO HCU mice. N=9 per group.

A394V mice = test: Plasma Hcy in NKH knock-in mouse model (GLDC mutation A394V) challenged with glycine
Procedure: In another exemplary experiment, NKH as represented in the experimental mouse model, A394V mice was tested for levels of Hcy in the NKH mouse model when exposed to various agents.
In this experiment, a knock-in mouse model with the clinically observed human GLDC mutation A394V engineered into the mouse gene was used. This mutation retains a small amount of residual enzyme that is sufficient to create a viable model.
Data shown has an N=5 animals per group and is representative of 2 independent experiments.

Cbs null mouse [5] = test: Hcy lowering, survival and liver injury in Cbs null mouse model; type: in vivo; conditions: Cbs null mice with severe liver damage
From the text: In one exemplary method, an acceptable mouse mode of HCU is used to study various effects of exemplary compositions disclosed herein on aberrant Hcy levels. To date, the majority of research on HCU has been performed using a CBS knockout mouse model. These Cbs (−/−) animals suffer from pronounced liver injury and typically die within 2-3 weeks of birth.
In an alternative experiment, agents were used to verify involvement of BHMT in the homocystinuria treatment process. In these exemplary methods, a Cbs null mouse was used where severe liver damage to the mouse model interferes with standard HCU treatments to reduce Hcy.

DMGDH = test: Western blot analysis of hepatic DMGDH protein levels in HO HCU mice; type: in vivo, mouse
Procedure: In other exemplary experiments, it is noted that methotrexate (MTX) treatment represses hepatic DMGDH protein levels even further in experimental HO HCU mice which supports the hypothesis that expression of this enzyme is sensitive to THF levels. In accordance with these methods, Western blot analysis of hepatic DMGDH protein levels in HO HCU mice in the presence and absence of methotrexate levels were assessed.
As illustrated herein, FIGS. 10A-10B represents a Western blot comparing the level of DMGDH and GAPDH (control) for untreated (HO) and treated (HO+MTX, methotrexate) mice (HO) using the HCU mouse model (10A); and further illustrated in a histogram plot (10B), level of intensity of DMDGH for untreated (HO) and treated (HO+MTX, methotrexate) mice (HO) using the HCU mouse model. This figure represents an N=9 per group and this figure is a representative of three independent experiments. P<0.05.
In another exemplary method, experiments were performed to measure levels of a critical enzyme in treated and untreated mouse models (HO).
As found in FIGS. 15A-15B, a Western blot comparing the level of DMGDH and GAPDH (control) for untreated (HO), treated (e.g. formate agent) and treated with standard treatment combinations (e.g. formate and trimethylglycine (e.g. betaine)) using the HCU mouse model (15A); and further illustrating in a histogram plot (15B), level of intensity of DMDGH for untreated (HO), treated (e.g. formate agent) and treated with standard treatment combinations (e.g. formate and trimethylglycine (e.g. betaine)) using the HCU mouse model in certain embodiments disclosed herein. Western blotting analysis of hepatic DMGDH protein levels in HO HCU mice in the presence and absence of either about 5.0% sodium formate alone or in combination with about 3.0% betaine given ad libitum in drinking water for about one week. N=9 per group. This figure is representative of three independent experiments.

[6] = betaine treatment of the HO model

O=S(=O)([O-])[O-].[Zn+2] [Zinc sulfate]
average decrease in plasma homocysteine (HO HCU mice [1]; 8 HO HCU mice, 0.05% w/v Zinc sulfate in drinking water ad libitum for one week): 25%
decrease in betaine efficacy during long term betaine treatment, zinc combined with betaine (HO HCU mice [1]; HO HCU mice, zinc supplementation with betaine, data not shown): prevented

C[N+](C)(C)CC(=O)O [betaine, N,N,N-trimethylglycine]
reduction of tHcy [2]: approximately 25%
ability of betaine treatment to lower homocysteine (HO HCU mice [3]; long-term betaine treatment, no methionine-restriction): diminished significantly over time
coagulation phenotype (HO HCU mice [3]; prolonged betaine treatment): reversion to a hypercoagulative phenotype
plasma levels of TNF-α and IL-Ip (HO HCU mice [3]; prolonged betaine treatment): significant increase
reduction of hepatic 5-MeTHF (hepatic 5-methyl-THF): 15-25%
fertility of female Cbs (-/-) mice (Cbs null mouse [4]): restored fertility
lowering of Hcy in Cbs (-/-) mice (Cbs null mouse [4]): without significantly lowering Hcy
severe liver injury, steatosis, and fibrosis in surviving Cbs (-/-) mice (Cbs null mouse [4]): not significantly improved
survival of Cbs (-/-) mice (Cbs null mouse [4]): improved survival
reduction of Hcy levels by standard treatment alone (HO HCU mice [1]; HO mouse model, betaine alone, as previously observed): 15-25%
AdoHcy levels (HO HCU mice [1]; [6]): fivefold decrease
decrease in plasma AdoMet (HO HCU mice [1]; [6]): 40%
plasma DMG (HO HCU mice [1]; [6]): increase
plasma MG (HO HCU mice [1]; [6]): increase
plasma cysteine (HO HCU mice [1]; [6]): increase
plasma methionine (HO HCU mice [1]; [6]): increase
levels of BHMT protein (BHMT): significantly higher levels
BHMT as share of total hepatic protein (BHMT; approximately 2% normally): 8-10%
improvement of hepatic DHFR level (DHFR): 5-10%

NCC(=O)O [glycine]
plasma Hcy on glycine challenge (A394V mice; mouse, in vivo): massive increase
lowering of Hcy in the Cbs null mouse model (Cbs null mouse [5]): unable to lower Hcy
further lowering of Hcy due to betaine in the presence of the amino acid (HO HCU mice [1]; HO HCU mice): reduced and/or completely prevented
plasma Hcy (HO HCU mice [1]): significantly lowered
plasma cysteine levels (HO HCU mice [1]): increased

N[C@@H](Cc1c[nH]cn1)C(=O)O [histidine]
further lowering of Hcy due to betaine in the presence of the amino acid (HO HCU mice [1]; HO HCU mice): also observed

CN(Cc1cnc2nc(N)nc(N)c2n1)c1ccc(C(=O)N[C@@H](CCC(=O)O)C(=O)O)cc1 [methotrexate]
hepatic DMGDH protein levels (DMGDH; methotrexate treatment): represses

CNCC(=O)O [sarcosine, sarcosine (methylglycine)]
further lowering of Hcy due to betaine in the presence of the amino acid (HO HCU mice [1]; HO HCU mice): also observed

N[C@@H](CO)C(=O)O [serine]
lowering of Hcy in the Cbs null mouse model (Cbs null mouse [5]): unable to lower Hcy
further lowering of Hcy due to betaine in the presence of the amino acid (HO HCU mice [1]; HO HCU mice): reduced and/or completely prevented
plasma Hcy (HO HCU mice [1]): significantly lowered
plasma cysteine levels (HO HCU mice [1]): increased

O=C[O-].[Na+] [sodium formate]
glycine induced increase in Hcy (A394V mice; A394V NKH mice, concomitant formate about 5.0% w/v in drinking water with about 5.0% w/v glycine): significantly reduced
hepatic DMGDH expression levels (DMGDH; about 5.0% sodium formate alone in drinking water, about one week): restore normal expression levels
response level for restoring DMGDH, formate agent combined with betaine (DMGDH; about 5.0% sodium formate with about 3.0% betaine in drinking water, about one week): surprisingly synergistic
lowering of Hcy in the Cbs null mouse model (Cbs null mouse [5]): unable to lower Hcy
plasma Hcy levels (HO HCU mice [1]; HO HCU mice, about 5.0% w/v sodium formate alone in drinking water, normal methionine/protein diet): significantly lowered
Hcy levels, formate combined with the standard treatment (betaine) (HO HCU mice [1]; HO HCU mice, about 5.0% w/v sodium formate with about 3.0% betaine in drinking water, normal protein diet): near normal levels

N[C@@H](Cc1c[nH]c2ccccc12)C(=O)O [tryptophan]
further lowering of Hcy due to betaine in the presence of the amino acid (HO HCU mice [1]; HO HCU mice): also observed
